Data as given in patent US6362218B1, “Brefeldin A derivatives” (Purdue Research Foundation, priority 1997, dated 2002).
≈ marks a conversion by molar mass, not a printed value. Where “and” joins values, the source holds several entries; their conditions need not be identical. Equal entries are not always repeated.

Experiments:
[1] = test system: HCT-116; test: NCI human cancer cell line screen, antiproliferative activity, Colon HCT-116; type: cell-based; details: concentration corresponding to 50% growth inhibition, read-out: cytotoxicity GI50, Colon HCT-116
Experimental: (§1) The new synthesized brefeldin A prodrug candidates and analogs were examined for antiproliferative activity against human cancer cell lines in the National Cancer Institute screen, in which the activity of each compound was evaluated with approximately 55 different cancer cell lines of diverse tumor origins.

[2] = test system: all human cancer cell lines successfully tested; test: NCI screen, mean graph midpoint over approximately 55 cancer cell lines; type: cell-based; details: average GI50 for all cell lines tested (approximately 55), test range 10^-4 to 10^-8 molar
Experimental: as §1

[3] = test system: OVCAR-3; test: NCI human cancer cell line screen, antiproliferative activity, Ovarian OVCAR-3; type: cell-based; details: concentration corresponding to 50% growth inhibition, read-out: cytotoxicity GI50, Ovarian OVCAR-3
Experimental: as §1

[4] = test system: DU-145; test: NCI human cancer cell line screen, antiproliferative activity, Prostate DU-145; type: cell-based; details: concentration corresponding to 50% growth inhibition, read-out: cytotoxicity GI50, Prostate DU-145
Experimental: as §1

[5] = test system: HOP-62; test: NCI human cancer cell line screen, antiproliferative activity, Lung HOP-62; type: cell-based; details: concentration corresponding to 50% growth inhibition, read-out: cytotoxicity GI50, Lung HOP-62
Experimental: as §1

[6] = test system: MDA-MB-435; test: NCI human cancer cell line screen, antiproliferative activity, Breast MDA-MB-435; type: cell-based; details: concentration corresponding to 50% growth inhibition, read-out: cytotoxicity GI50, Breast MDA-MB-435
Experimental: as §1

[7] = test system: SF-539; test: NCI human cancer cell line screen, antiproliferative activity, CNS SF-539; type: cell-based; details: concentration corresponding to 50% growth inhibition, read-out: cytotoxicity GI50, CNS SF-539
Experimental: as §1

[8] = test system: UACC-62; test: NCI human cancer cell line screen, antiproliferative activity, Melanoma UACC-62; type: cell-based; details: concentration corresponding to 50% growth inhibition, read-out: cytotoxicity GI50, Melanoma UACC-62
Experimental: as §1

[9] = test system: SN12C; test: NCI human cancer cell line screen, antiproliferative activity, Renal SN12C; type: cell-based; details: concentration corresponding to 50% growth inhibition, read-out: cytotoxicity GI50, Renal SN12C
Experimental: as §1

[10] = buffer, pH 7.4
[11] = Solubility of saturated solutions in distilled water, gravimetric; details: distilled water at room temperature, saturated solution

CC1CCCC=CC2CC(O)CC2C(O)[C@H]([S+]([O-])CCN)CC(=O)O1 (stereo partly drawn) [Compound 18, 2,3-Dihydro-(3R)-(2′-aminoethylsulfinyl)brefeldin A]
GI50 [1]: 0.086 µM
MGM (mean graph midpoint for growth inhibition) [2]: 0.055 µM
GI50 [3]: 0.082 µM
GI50 [4]: 0.17 µM
GI50 [5]: 0.15 µM
GI50 [6]: 0.055 µM
GI50 [7]: 0.02 µM
GI50 [8]: 0.021 µM
GI50 [9]: 0.12 µM

Brefeldin A 8 0-Glutarate [Compound 23]
GI50 [1]: 21 µM
MGM (mean graph midpoint for growth inhibition) [2]: 13 µM
GI50 [3]: 20 µM
GI50 [4]: 30 µM
GI50 [5]: 33 µM
GI50 [6]: 11 µM
GI50 [7]: 22 µM
GI50 [9]: 32 µM

CC1CCCC=CC2CC(O)CC2C(O)C(SCCN)CC(=O)O1 [Compound 9, 2,3-Dihydro-(3R)-(2′)-aminoethylthio)brefeldin A]
GI50 [1]: 3.5 µM
MGM (mean graph midpoint for growth inhibition) [2]: 2.5 µM
GI50 [3]: 2.2 µM
GI50 [5]: 3.9 µM
GI50 [7]: 4.9 µM
GI50 [8]: 2.7 µM

CC1CCCC=CC2CC(O)CC2C(O)[C@H](Sc2ccc(O)cc2)CC(=O)O1 (stereo partly drawn) [Compound 3, 2,3-Dihydro-(3R)-(4′-hydroxyphenylthio)brefeldin A]
GI50 [1]: 2.5 µM
MGM (mean graph midpoint for growth inhibition) [2]: 3.2 µM
GI50 [3]: 2.4 µM
GI50 [4]: 6.3 µM
GI50 [5]: 3.2 µM
GI50 [7]: 5.1 µM
GI50 [8]: 4.8 µM
GI50 [9]: 4.4 µM

CC1CCCC=CC2CC(O)CC2C(O)[C@H]([S+]([O-])CCO)CC(=O)O1 (stereo partly drawn) [Compound 15, 2,3-Dihydro-(3R)-(2′-hydroxyethylsulfinyl)brefeldin A]
GI50 [1]: 0.21 µM
MGM (mean graph midpoint for growth inhibition) [2]: 0.11 µM
half-life for the conversion of the sulfoxide to brefeldin A [10]: 4.81 h
GI50 [3]: 0.19 µM
GI50 [4]: 0.26 µM
GI50 [5]: 0.29 µM
GI50 [6]: 0.09 µM
GI50 [7]: 0.058 µM
GI50 [8]: 0.064 µM
GI50 [9]: 0.65 µM

COC(=O)CC[S+]([O-])C1CC(=O)OC(C)CCCC=CC2CC(O)CC2C1O [Compound 13, 2,3-Dihydro-(3R)-(2′-methoxycarbonylethylsulfinyl)brefeldin A]
half-life for the conversion of the sulfoxide to brefeldin A [10]: 87.4 h

C[C@H]1CCC/C=C/[C@@H]2C[C@H](O)C[C@H]2[C@H](O)/C=C/C(=O)O1 [Compound 1, Brefeldin A]
GI50 [1]: 0.029 µM
MGM (mean graph midpoint for growth inhibition) [2]: 0.041 µM and 0.040 µM
MGM (mean graph midpoint for growth inhibition) ([2]; listed as brefeldin A): 0.040 µM
GI50 [3]: 0.032 µM
GI50 [4]: 0.13 µM
GI50 [5]: 0.07 µM
solubility [11]: 2.8 mg/mL (≈ 9.99 mM)
GI50 [6]: 0.041 µM
GI50 [7]: 0.04 µM
GI50 [8]: 0.022 µM
GI50 [9]: 0.09 µM

C[C@H]1CCC/C=C/[C@@H]2C[C@H](O)C[C@H]2[C@H](O)[C@H]([S+]([O-])c2ccc(O)cc2)CC(=O)O1 (stereo partly drawn) [Compound 14, 2,3-Dihydro-(3R)-(4′-hydroxyphenylsulfinyl)brefeldin A]
GI50 [1]: 0.026 µM
MGM (mean graph midpoint for growth inhibition) [2]: 0.037 µM
GI50 [3]: 0.025 µM
GI50 [4]: 0.118 µM
GI50 [5]: 0.088 µM
GI50 [6]: 0.042 µM
GI50 [7]: 0.017 µM
GI50 [8]: 0.03 µM
GI50 [9]: 0.05 µM

CC1CCCC=CC2CC(O)CC2C(O)C(O)C(O)C(=O)O1 (stereo not shown) [Compound 26, 2,3-Dihydro-2,3-dihydroxybrefeldin A]
MGM (mean graph midpoint for growth inhibition) [2]: 3.0 µM and 2.3 µM
GI50 [3]: 2.4 µM
GI50 [4]: 6.7 µM
GI50 [5]: 5 µM
GI50 [6]: 3.8 µM
GI50 [7]: 0.68 µM
GI50 [8]: 1.6 µM
GI50 [9]: 2.7 µM

Brefeldin A 8 0-Succinate [Compound 22]
MGM (mean graph midpoint for growth inhibition) [2]: 2.5 µM

COC(=O)CS(=O)(=O)[C@@H]1CC(=O)OC(C)CCCC=CC2CC(O)CC2C1O (stereo partly drawn) [Compound 27, 2,3-Dihydro(3R)-(methoxycarbonylmethylsulfonyl)brefeldin A]
GI50 [1]: 3.7 µM
MGM (mean graph midpoint for growth inhibition) [2]: 3.5 µM
GI50 [3]: 3.2 µM
GI50 [4]: 6 µM
GI50 [5]: 5.1 µM
GI50 [6]: 5.5 µM
GI50 [8]: 5 µM

CC1CCCC=CC2CC(O)CC2C(O)[C@H](SCC(O)CO)CC(=O)O1 (stereo partly drawn) [Compound 8, 2,3-Dihydro (3R)-(2′,3′-dihydroxypropylthio) brefeldin A]
GI50 [1]: 36 µM
MGM (mean graph midpoint for growth inhibition) [2]: 23 µM
GI50 [3]: 22 µM
GI50 [4]: 18 µM
GI50 [5]: 33 µM
GI50 [6]: 36 µM
GI50 [7]: 32 µM
GI50 [8]: 16 µM
GI50 [9]: 34 µM

CC1CCCC=CC2CC(O)CC2C(O)[C@H](CC(=O)O)CC(=O)O1 (stereo partly drawn) [Compound 6, 2,3-Dihydro-(3R)-(carboxymethyl)brefeldin A]
GI50 [1]: 23 µM
MGM (mean graph midpoint for growth inhibition) [2]: 33 µM
GI50 [3]: 30 µM
GI50 [4]: 38 µM
GI50 [5]: 30 µM
solubility [11]: 40 mg/mL (≈ 118 mM)
GI50 [6]: 42 µM
GI50 [7]: 34 µM
GI50 [8]: 33 µM
GI50 [9]: 39 µM

CC1CCCC=CC2CC(O)CC2C(O)C(SCCN(C)C)CC(=O)O1 [Compound 4, 2,3-Dihydro-(3R)-(2′-N,N-dimethylaminoethylthiol)brefeldin A]
GI50 [1]: 0.75 µM
MGM (mean graph midpoint for growth inhibition) [2]: 0.68 µM
GI50 [4]: 2.4 µM
solubility [11]: 10 mg/mL (≈ 25.9 mM)
GI50 [6]: 0.5 µM
GI50 [7]: 0.39 µM
GI50 [8]: 0.43 µM
GI50 [9]: 1.4 µM

CC1CCCC=CC2CC(O)CC2C(O)C(SCCO)CC(=O)O1 [Compound 5, 2,3-Dihydro-(3R)-(2′-hydroxyethylthio)brefeldin A]
GI50 [1]: 19 µM
MGM (mean graph midpoint for growth inhibition) [2]: 20 µM
GI50 [3]: 27 µM
GI50 [4]: 30 µM
GI50 [5]: 34 µM
solubility [11]: 12 mg/mL (≈ 33.5 mM)
GI50 [6]: 34 µM
GI50 [7]: 23 µM
GI50 [8]: 40 µM
GI50 [9]: 33 µM

CC1CCCC=CC2CC(OC(=O)CCCC(=O)O)CC2C(OC(=O)CCCC(=O)O)C=CC(=O)O1 (stereo not shown) [Compound 25, Brefeldin A Diglutarate]
GI50 [1]: > 100 µM
MGM (mean graph midpoint for growth inhibition) [2]: 98 µM
GI50 [3]: > 100 µM
GI50 [4]: > 100 µM
GI50 [5]: > 100 µM
GI50 [6]: > 100 µM
GI50 [7]: > 100 µM
GI50 [8]: > 100 µM
GI50 [9]: > 100 µM

C[C@H]1CCC/C=C/[C@@H]2C[C@H](OC(=O)CCC(=O)O)C[C@H]2[C@H](OC(=O)CCC(=O)O)/C=C/C(=O)O1 [Compound 24, Brefeldin A Disuccinate]
GI50 [1]: > 100 µM
MGM (mean graph midpoint for growth inhibition) [2]: 89 µM
GI50 [3]: > 100 µM
GI50 [4]: > 100 µM
GI50 [5]: > 100 µM
GI50 [6]: > 100 µM
GI50 [7]: > 100 µM
GI50 [8]: > 100 µM
GI50 [9]: > 100 µM

C[C@H]1CCC/C=C/[C@@H]2C[C@H](O)C[C@H]2[C@@H](O)[C@H]([S+]([O-])CCN(C)C)CC(=O)O1 (stereo partly drawn) [Compound 20, 2,3-Dihydro-(3R)-[21-N,N-(dimethylamino)ethylsulfinyl]brefeldin A]
GI50 [1]: 0.28 µM
MGM (mean graph midpoint for growth inhibition) [2]: 0.20 µM
GI50 [3]: 0.14 µM
GI50 [4]: 0.48 µM
GI50 [5]: 0.35 µM
GI50 [6]: 0.41 µM
GI50 [7]: 0.3 µM
GI50 [8]: 0.071 µM
GI50 [9]: 0.15 µM

COC(=O)CSC1CC(=O)OC(C)CCCC=CC2CC(O)CC2C1O [Compound 7, 2,3-Dihydro-(3R)-(methoxycarbonylmethylthiol)brefeldin A]
GI50 [1]: 19 µM
MGM (mean graph midpoint for growth inhibition) [2]: 17 µM
GI50 [3]: 27 µM
GI50 [4]: 30 µM
GI50 [5]: 28 µM
GI50 [6]: 30 µM
GI50 [7]: 24 µM
GI50 [9]: 32 µM

COc1ccc(S[C@@H]2CC(=O)OC(C)CCCC=CC3CC(O)CC3C2O)cc1 (stereo partly drawn) [Compound 10, 2,3-Dihydro-(3R)-(4′-methoxyphenylthio)brefeldin A]
GI50 [1]: 33 µM
MGM (mean graph midpoint for growth inhibition) [2]: 31 µM
GI50 [3]: 22 µM
GI50 [4]: 36 µM
GI50 [5]: 24 µM
GI50 [6]: 19 µM
GI50 [7]: 26 µM
GI50 [8]: 29 µM
GI50 [9]: 30 µM

C[C@H]1CCC/C=C/[C@@H]2C[C@H](O)C[C@H]2[C@H](O)[C@@H](SC[C@H](N)C(=O)O)CC(=O)O1 [Compound 11, 2,3-Dihydro-(3R)-(S-L-cysteinyl)brefeldin A]
solubility [11]: 35 mg/mL (≈ 87.2 mM)

CC1CCCC=CC2CC(O)CC2C(O)C([S+]([O-])C[C@H](N)C(=O)O)CC(=O)O1 (stereo partly drawn) [Compound 21, 2,3-Dihydro-(3R)-(S-L-cysteinyl)brefeldin A Sulfoxide]
GI50 [1]: 0.091 µM
MGM (mean graph midpoint for growth inhibition) [2]: 0.096 µM
GI50 [3]: 0.039 µM
GI50 [4]: 0.43 µM
GI50 [5]: 0.7 µM
GI50 [6]: 0.05 µM
GI50 [7]: 0.038 µM
GI50 [8]: 0.038 µM
GI50 [9]: 0.16 µM
